In one assay the test system is influenza infection. More on the design: species or system human. The settings on record: in vivo, po.
Assay [1] concerns NA of influenza A and B virus isolates. The class given is biochemical, influenza A and B viruses.

The values that follow come from article PMC3070406 (The Pediatric infectious disease journal, 2011).

“And” between values parts separate entries of the source, which are not always exact repeats. Equal entries are not always repeated.

In the case of `CCOC(=O)C1=C[C@@H](OC(CC)CC)[C@H](NC(C)=O)[C@@H](N)C1` [oseltamivir], the “duration of symptoms after commencing antiviral treatment (mean)” value in the assay with influenza infection is 33.0 ± 8.3 days and 26 ± 17.9 days.

Regarding `CC(=O)N[C@H]1[C@H]([C@H](O)[C@H](O)CO)OC(C(=O)O)=C[C@@H]1N=C(N)N` [zanamivir], the Susceptibility to zanamivir result in assay [1] is recorded as “susceptible”.
